Data taken from ChEMBL document CHEMBL1142640, “New natural product isolation and comparison of the secondary metabolite content of three distinct samples of the sea hare Aplysia dactylomela from tenerife” (J Nat Prod, 2000).
In brackets after ≈: the same amount, converted by molar mass. Activity calls are given as the source filed them. The rule behind the calls is not given here.

Key:
[1] = test system: P388; assay: Cytotoxicity against mouse P388 cells; format: functional, cell-based
[2] = test system: Artemia salina; assay: (§1) Toxicity in Artemia salina at 0.5 mg/mL after 48 hrs; format: organism-based; settings: in vivo, 48 h
[3] = test system: HT-29; assay: Cytotoxicity against human HT29 cells; format: functional, cell-based
[4] = test system: Microbotryum violaceum; assay: Antifungal activity against Microbotryum violaceae at 50 ug/disk; format: functional
[5] = test system: [Chlorella] fusca; assay: Antialgal activity against Chlorella fusca at 50 ug/disk; format: functional; settings: Scenedesmus fuscus; for zone of inhibition at 50 µg/disc: read-out: IZ
[6] = test system: A549; assay: Cytotoxicity against human A549 cells; format: functional, cell-based
[7] = Cytotoxicity against human MEL28 cells; format: functional, cell-based; settings: SK-MEL-28
[8] = test system: Escherichia coli; assay: Antibacterial activity against Escherichia coli at 50 ug/disk; format: functional
[9] = test system: Aspergillus pseudoglaucus; assay: Antifungal activity against Eurotium repens at 50 ug/disk; format: functional
[10] = test system: Fusarium oxysporum; assay: Antifungal activity against Fusarium oxysporum at 50 ug/disk; format: functional
[11] = test system: Mycotypha microspora; assay: Antifungal activity against Mycotypha microspora at 50 ug/disk; format: functional
[12] = test system: Priestia megaterium; assay: Antibacterial activity against Bacillus megaterium at 50 ug/disk; format: functional
[13] = test system: KB; assay: Cytotoxicity against human KB cells; format: functional, cell-based
[14] = test system: Lu1; assay: Cytotoxicity against human Lu1 cells; format: functional, cell-based
[15] = test system: MCF7; assay: Cytotoxicity against human MCF7 cells; format: functional, cell-based
[16] = test system: [Chlorella] fusca; assay: Antialgal activity against Chlorella fusca assessed as no colonies of test organism growing within inhibition zone at 50 ug/disk; format: functional; settings: Scenedesmus fuscus; read-out: IZ
[17] = Antibacterial activity against Escherichia coli assessed as few colonies of test organism growing within inhibition zone at 50 ug/disk; settings: read-out: IZ
[18] = test system: ZR-75-1; assay: Cytotoxicity against human ZR-75-1 cells; format: functional, cell-based
[19] = Cytotoxicity against human HMO2 cells; format: functional, cell-based
[20] = test system: HepG2; assay: Cytotoxicity against human HepG2 cells; format: functional, cell-based
[21] = test system: Aspergillus pseudoglaucus; assay: Antifungal activity against Eurotium repens assessed as few colonies of test organism growing within inhibition zone at 50 ug/disk; format: functional; settings: read-out: IZ
[22] = test system: Microbotryum violaceum; assay: Antifungal activity against Microbotryum violaceae assessed as few colonies of test organism growing within inhibition zone at 50 ug/disk; format: functional; settings: read-out: IZ
[23] = test system: HeLa; assay: Cytotoxicity against human HeLa cells; format: functional, cell-based
[24] = as §1; format: organism-based; settings: in vivo, read-out: Activity
[25] = Toxicity in Artemia salina at 0.5 mg/mL after 24 hrs; format: organism-based; settings: in vivo, read-out: Activity
[26] = biological target: Tyrosine-protein kinase Lck (Homo sapiens) (UniProt P06239); assay: Inhibition of p56lck
Sequence of Tyrosine-protein kinase Lck (Homo sapiens) (P06239 2-509 limits assumed): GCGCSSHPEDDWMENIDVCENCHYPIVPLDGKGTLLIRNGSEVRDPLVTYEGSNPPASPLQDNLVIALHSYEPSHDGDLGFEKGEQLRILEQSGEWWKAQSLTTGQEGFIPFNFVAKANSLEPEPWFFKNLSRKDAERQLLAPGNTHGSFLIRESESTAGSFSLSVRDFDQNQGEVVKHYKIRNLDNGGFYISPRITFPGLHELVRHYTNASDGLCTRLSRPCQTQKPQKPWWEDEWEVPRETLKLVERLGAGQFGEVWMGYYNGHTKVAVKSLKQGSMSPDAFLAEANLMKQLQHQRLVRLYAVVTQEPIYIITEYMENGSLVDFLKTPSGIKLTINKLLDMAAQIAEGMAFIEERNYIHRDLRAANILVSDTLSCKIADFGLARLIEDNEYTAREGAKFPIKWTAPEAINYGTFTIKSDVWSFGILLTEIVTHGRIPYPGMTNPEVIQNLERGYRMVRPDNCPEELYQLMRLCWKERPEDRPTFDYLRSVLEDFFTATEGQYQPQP

[27] = test system: Caenorhabditis elegans; assay: Nematicidal activity against Caenorhabditis elegans; format: functional, organism-based
[28] = test system: Mycotypha microspora; assay: Antifungal activity against Mycotypha microspora assessed as few colonies of test organism growing within inhibition zone at 50 ug/disk; format: functional; settings: read-out: IZ
[29] = test system: Priestia megaterium; assay: Antibacterial activity against Bacillus megaterium assessed as no colonies of test organism growing within inhibition zone at 50 ug/disk; format: functional; settings: read-out: IZ
[30] = test system: Microbotryum violaceum; assay: Antifungal activity against Microbotryum violaceae assessed as no colonies of test organism growing within inhibition zone at 50 ug/disk; format: functional; settings: read-out: IZ
[31] = biological target: Human immunodeficiency virus type 1 reverse transcriptase (Human immunodeficiency virus 1) (UniProt Q72547); assay: Inhibition of HIV1 reverse transcriptase

Structure (SMILES) | IC50 [13] [µg/mL] | Activity [2] | Activity [4] | IC50 [14] [µg/mL] | Activity [9] | IC50 [18] [µg/mL] | Activity [10] | Activity [5] | Activity [8] | Activity [12] | zone of inhibition at 50 µg/disc [21] [mm] | other results
C=C1C[C@@H](O)[C@@H](Br)C(C)(C)[C@]12CC[C@](C)(Cl)[C@@H](Br)C2 [CARTILAGINEOL] |  |  |  |  |  |  |  |  |  |  |  | IC50 [1]: 5 µg/mL (≈ 12.1 µM); inhibition zone (Toxicity) [2]: Not Active; IC50 [3]: 0.25 µg/mL (≈ 0.603 µM); inhibition zone (IZ) [4]: inactive; inhibition zone (IZ) [5]: inactive; IC50 [6]: 1 µg/mL (≈ 2.41 µM); IC50 [7]: 1 µg/mL (≈ 2.41 µM); inhibition zone (IZ) [8]: inactive; inhibition zone (IZ) [9]: inactive; inhibition zone (IZ) [10]: inactive; inhibition zone (IZ) [11]: inactive; inhibition zone (IZ) [12]: inactive
C[C@](Cl)(/C=C/Br)[C@@H](Cl)/C=C/C(=C\Cl)C(Cl)Cl | > 25 | Not Active | inactive | > 25 | inactive | > 25 | inactive |  |  |  |  | IC50 [15]: 1.5 µg/mL (≈ 3.87 µM); zone of inhibition at 50 µg/disc [16]: 1 mm; zone of inhibition at 50 µg/disc [17]: 2 mm; IC50 [19]: 1.1 µg/mL (≈ 2.84 µM); IC50 [20]: 1 µg/mL (≈ 2.58 µM)
Clc1ccc(COC(Cn2ccnc2)c2ccc(Cl)cc2Cl)c(Cl)c1 (stereo not given) [MICONAZOLE] |  |  |  |  |  |  |  |  |  |  |  | zone of inhibition at 50 µg/disc ([4]; read-out: IZ): 20 mm; zone of inhibition at 50 µg/disc [5]: 4 mm; zone of inhibition at 50 µg/disc ([8]; read-out: IZ): 1 mm; zone of inhibition at 50 µg/disc ([9]; read-out: IZ): 3 mm; zone of inhibition at 50 µg/disc ([10]; read-out: IZ): 32 mm; zone of inhibition at 50 µg/disc ([11]; read-out: IZ): 5 mm; zone of inhibition at 50 µg/disc ([12]; read-out: IZ): 10 mm
Cc1cc([C@H]2CC[C@](C)(Cl)[C@@H](Br)C2)co1 [FUROCAESPITANE] |  | Not Active | inactive |  | inactive |  | inactive | inactive | inactive | inactive |  | Activity [11]: inactive
C=C1C[C@H](OC(C)=O)[C@H](Br)C(C)(C)[C@@]12CC[C@](C)(Br)[C@@H](Cl)C2 | > 25 | Not Active |  | > 25 |  | > 25 |  | inactive | inactive | inactive | 1 | 
CCOC(=O)c1ccccc1C(=O)OCC [DIETHYL PHTHALATE] |  |  |  |  |  |  |  |  |  |  |  | zone of inhibition at 50 µg/disc [5]: 13 mm
CC1=C([C@H]2CC[C@](C)(Cl)[C@@H](Br)C2)C[C@@H](Br)C(C)(C)O1 [LAUCAPYRANOID A] |  | Not Active | inactive |  | inactive |  | inactive | inactive | inactive | inactive |  | Activity [11]: inactive
CC(=O)O[C@@H](C=C(C)C)C/C(C)=C1\CC[C@](C)(Br)[C@@H](Cl)C1 | > 25 | Not Active |  | > 25 |  | > 25 |  | inactive | inactive | inactive | 2 | zone of inhibition at 50 µg/disc [22]: 1 mm
C[C@@]1(Cl)C[C@@](C)(Br)[C@H](/C=C/Cl)C[C@@H]1Br | > 25 |  |  | > 25 |  | > 25 |  | inactive |  |  | 1 | IC50 [23]: 1 µg/mL (≈ 2.74 µM); mortality at 48 h, 0.5 mg/mL [24]: 90%; zone of inhibition at 50 µg/disc [17]: 1 mm; zone of inhibition at 50 µg/disc [22]: 1 mm
CC1(C)C[C@@H](Br)C[C@](C)(O)[C@@]12C=C/C(=C/Br)CC2 | > 25 |  |  | > 25 |  | > 25 |  | inactive |  |  | 2 | mortality at 24 h, 0.5 mg/mL [25]: 100%; IC50 [23]: 4.5 µg/mL (≈ 11.9 µM); Activity [26]: inactive; IC50 [15]: < 1 µg/mL; Activity [27]: Active; zone of inhibition at 50 µg/disc [28]: 1 mm; zone of inhibition at 50 µg/disc [29]: 1 mm; zone of inhibition at 50 µg/disc [30]: 3 mm; Activity [31]: inactive; IC50 [19]: 17 µg/mL (≈ 45 µM); IC50 [20]: < 1 µg/mL
